Among the data in US10479780B2, “Aminopyrazole derivatives” (Chugai Seiyaku Kabushiki Kaisha, priority 2015, dated 2019) are IC50 values, retold here.

Common to all, as to type: biochemical
The target in one assay is T1, human Yes1 enzyme (Homo sapiens, UniProt P07947).
T1 construct: made in house
Description: Yes1 enzyme inhibitory activity (time-resolved fluorometry, biotinylated peptide phosphorylation). The note with it: biotinylated peptide phosphorylation, read-out: YES_IC50. The essentials: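 Inhibition was expressed against a compound-free control to give IC50, using TR-FRET read-out (Eu-cryptate anti-pTyr antibody, streptavidin-XL665).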

In the next assay the target is T2, human Src enzyme (Homo sapiens, UniProt P12931).
T2 construct: purchased Carna Biosciences, Inc. 08-173
T2 sequence (P12931 whole entry): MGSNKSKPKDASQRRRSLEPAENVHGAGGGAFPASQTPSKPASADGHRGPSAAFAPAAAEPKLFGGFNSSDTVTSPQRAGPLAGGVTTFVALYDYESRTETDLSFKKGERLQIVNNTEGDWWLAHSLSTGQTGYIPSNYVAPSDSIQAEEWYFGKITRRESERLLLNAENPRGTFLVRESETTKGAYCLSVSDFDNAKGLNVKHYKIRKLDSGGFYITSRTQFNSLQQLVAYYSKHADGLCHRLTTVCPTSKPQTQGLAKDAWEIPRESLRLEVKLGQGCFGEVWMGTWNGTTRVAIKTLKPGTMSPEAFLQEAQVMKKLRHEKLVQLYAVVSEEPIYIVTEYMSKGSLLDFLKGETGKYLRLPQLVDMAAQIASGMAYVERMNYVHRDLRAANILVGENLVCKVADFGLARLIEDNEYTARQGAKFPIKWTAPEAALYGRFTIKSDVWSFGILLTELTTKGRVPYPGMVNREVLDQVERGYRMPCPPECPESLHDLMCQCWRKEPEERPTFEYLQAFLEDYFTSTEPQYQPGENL
Description: Src enzyme inhibitory activity (time-resolved fluorometry, biotinylated peptide phosphorylation). The note with it: biotinylated peptide phosphorylation, read-out: SRC_IC50. An outline of the steps: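 Compounds were tested for blocking tyrosine phosphorylation of a biotinylated peptide substrate by recombinant human Src. Phosphorylated product was quantified by time-resolved fluorometry using europium cryptate and XL665 conjugates, and IC50 was calculated against the compound-free control.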

The target of a further assay is T3, human Lck enzyme (Homo sapiens, UniProt P06239).
T3 construct: purchased Carna Biosciences, Inc. 08-170
T3 sequence (P06239 whole entry): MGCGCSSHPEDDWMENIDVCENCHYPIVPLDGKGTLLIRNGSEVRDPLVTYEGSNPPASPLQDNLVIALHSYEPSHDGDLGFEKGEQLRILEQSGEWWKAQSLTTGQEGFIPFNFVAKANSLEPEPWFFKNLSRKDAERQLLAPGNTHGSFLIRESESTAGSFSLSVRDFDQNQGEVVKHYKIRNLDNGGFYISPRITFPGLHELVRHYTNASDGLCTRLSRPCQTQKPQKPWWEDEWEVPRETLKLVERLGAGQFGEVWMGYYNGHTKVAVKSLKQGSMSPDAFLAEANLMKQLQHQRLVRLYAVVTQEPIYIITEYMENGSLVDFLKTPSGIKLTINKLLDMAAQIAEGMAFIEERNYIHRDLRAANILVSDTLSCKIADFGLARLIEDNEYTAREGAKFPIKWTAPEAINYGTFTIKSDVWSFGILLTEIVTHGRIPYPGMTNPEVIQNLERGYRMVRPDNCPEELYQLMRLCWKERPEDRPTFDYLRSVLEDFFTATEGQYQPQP
The assay is described as follows: Lck enzyme inhibitory activity (time-resolved fluorometry, biotinylated peptide phosphorylation). The note with it: biotinylated peptide phosphorylation, read-out: LCK_IC50. The essentials: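 Readout pairs a europium cryptate-labelled anti-phosphotyrosine antibody with XL665-streptavidin, measured by time-resolved fluorescence. IC50 derived from percent inhibition against untreated controls.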

T1 sequence (P07947 whole entry): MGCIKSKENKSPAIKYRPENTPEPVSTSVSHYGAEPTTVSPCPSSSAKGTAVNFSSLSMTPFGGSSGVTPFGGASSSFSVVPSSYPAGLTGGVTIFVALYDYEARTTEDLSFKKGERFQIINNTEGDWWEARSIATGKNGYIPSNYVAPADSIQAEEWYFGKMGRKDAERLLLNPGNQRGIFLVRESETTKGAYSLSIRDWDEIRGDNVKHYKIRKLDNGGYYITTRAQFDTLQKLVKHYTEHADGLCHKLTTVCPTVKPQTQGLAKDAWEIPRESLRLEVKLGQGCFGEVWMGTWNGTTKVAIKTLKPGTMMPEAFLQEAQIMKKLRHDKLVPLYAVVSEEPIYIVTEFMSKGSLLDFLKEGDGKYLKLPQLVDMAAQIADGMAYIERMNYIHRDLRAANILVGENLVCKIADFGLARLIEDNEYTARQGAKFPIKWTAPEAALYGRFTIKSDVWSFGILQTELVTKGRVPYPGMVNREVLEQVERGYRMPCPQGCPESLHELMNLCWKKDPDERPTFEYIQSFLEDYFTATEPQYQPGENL

In the case of `Cc1cc(Oc2ccccc2F)cc(F)c1-n1ncc(C(=O)c2cc3cc(OCC(F)F)c(C4CCN(S(=O)(=O)C5CC5)CC4)cc3[nH]2)c1N` [Example 4-17-019, [5-amino-1-[2-fluoro-4-(2-fluorophenoxy)-6-methylphenyl]pyrazol-4-yl]-[6-(1-cyclopropylsulfonylpiperidin-4-yl)-5-(2,2-difluoroethoxy)-1H-indol-2-yl]methanone], the IC50 turned out to be 3.2 nM on human Yes1 enzyme, 18 nM on human Src enzyme and 9.1 nM at human Lck enzyme.

`CC(=O)N1CCC(c2cc3[nH]c(C(=O)c4cnn(-c5cnc(Oc6ccccc6F)cc5C)c4N)cc3cc2OCC(F)F)CC1` [Example 4-17-020, 1-[4-[2-[5-amino-1-[6-(2-fluorophenoxy)-4-methylpyridin-3-yl]pyrazole-4-carbonyl]-5-(2,2-difluoroethoxy)-1H-indol-6-yl]piperidin-1-yl]ethanone]: the IC50 turned out to be 0.81 nM on human Yes1 enzyme, 8.3 nM at human Src enzyme and 3.3 nM at human Lck enzyme.

For the compound `Cc1cc(Oc2ccccc2F)ncc1-n1ncc(C(=O)c2cc3cc(OCC(F)F)c(C4CCN(S(C)(=O)=O)CC4)cc3[nH]2)c1N` [Example 4-17-021, [5-amino-1-[6-(2-fluorophenoxy)-4-methylpyridin-3-yl]pyrazol-4-yl]-[5-(2,2-difluoroethoxy)-6-(1-methylsulfonylpiperidin-4-yl)-1H-indol-2-yl]methanone], the IC50 is 0.76 nM on human Yes1 enzyme, 9.7 nM at human Src enzyme and 5.6 nM at human Lck enzyme.

Take `Cc1cc(Oc2ccccc2F)ncc1-n1ncc(C(=O)c2cc3cc(OCC(F)F)c(C4CCN(S(=O)(=O)C5CC5)CC4)cc3[nH]2)c1N` [Example 4-17-022, [5-amino-1-[6-(2-fluorophenoxy)-4-methylpyridin-3-yl]pyrazol-4-yl]-[6-(1-cyclopropylsulfonylpiperidin-4-yl)-5-(2,2-difluoroethoxy)-1H-indol-2-yl]methanone]: the IC50 came out at 1.3 nM on human Yes1 enzyme, 14 nM on human Src enzyme and 8 nM at human Lck enzyme.

Consider `Cc1cc(Oc2c(F)cccc2F)ncc1-n1ncc(C(=O)c2cc3cc(OCC(F)F)c(C4CCN(S(C)(=O)=O)CC4)cc3[nH]2)c1N` [Example 4-17-023, [5-amino-1-[6-(2,6-difluorophenoxy)-4-methylpyridin-3-yl]pyrazol-4-yl]-[5-(2,2-difluoroethoxy)-6-(1-methylsulfonylpiperidin-4-yl)-1H-indol-2-yl]methanone], for which the values for the IC50 on human Yes1 enzyme, on human Src enzyme and on human Lck enzyme were 6.8 nM, 27 nM and 21 nM, respectively.

For `Cc1cc(Oc2c(F)cccc2F)ncc1-n1ncc(C(=O)c2cc3cc(OCC(F)F)c(C4CCN(S(=O)(=O)C5CC5)CC4)cc3[nH]2)c1N` [Example 4-17-024, [5-amino-1-[6-(2,6-difluorophenoxy)-4-methylpyridin-3-yl]pyrazol-4-yl]-[6-(1-cyclopropylsulfonylpiperidin-4-yl)-5-(2,2-difluoroethoxy)-1H-indol-2-yl]methanone], the IC50 came out at 11 nM at human Yes1 enzyme, 40 nM at human Src enzyme and 25 nM on human Lck enzyme.

Take `Cc1cc(Oc2c(F)cccc2F)ncc1-n1ncc(C(=O)c2cc3cc(OCC(F)F)c(C4CCN(C(=O)CN)CC4)cc3[nH]2)c1N` [Example 4-18-001, 2-amino-1-{4-{2-{5-amino-1-[6-(2,6-difluorophenoxy)-4-methylpyridin-3-yl]pyrazole-4-carbonyl}-5-(2,2-difluoroethoxy)-1H-indol-6-yl}piperidin-1-yl}ethanone]: the IC50 at human Yes1 enzyme is 3.2 nM; at human Src enzyme it was 24 nM; on human Lck enzyme, 8.2 nM.

As to `Cc1cc(Oc2ccccc2F)ccc1-n1ncc(C(=O)c2cc3cc(OC(F)F)c(C4CCN(C(=O)CN)CC4)cc3[nH]2)c1N` [Example 4-18-002, 2-amino-1-[4-[2-[5-amino-1-[4-(2-fluorophenoxy)-2-methylphenyl]pyrazole-4-carbonyl]-5-(difluoromethoxy)-1H-indol-6-yl]piperidin-1-yl]ethanone], the IC50 was 5.9 nM at human Yes1 enzyme, 29 nM at human Src enzyme and 15 nM at human Lck enzyme.

On to `Cc1cc(Oc2c(F)cccc2F)ncc1-n1ncc(C(=O)c2cc3cc(OC(F)F)c(C4CCN(C(=O)CN)CC4)cc3[nH]2)c1N` [Example 4-18-003, 2-amino-1-[4-[2-[5-amino-1-[6-(2,6-difluorophenoxy)-4-methylpyridin-3-yl]pyrazole-4-carbonyl]-5-(difluoromethoxy)-1H-indol-6-yl]piperidin-1-yl]ethanone], for which the IC50 at human Yes1 enzyme worked out at 4.8 nM; on human Src enzyme, 23 nM; on human Lck enzyme, 11 nM.

Take `Cc1cc(Oc2ccccc2F)ccc1-n1ncc(C(=O)c2cc3cc(OCC(F)F)c(C4CCN(C(=O)CN)CC4)cc3[nH]2)c1N` [Example 4-18-004, 2-amino-1-[4-[2-[5-amino-1-[4-(2-fluorophenoxy)-2-methylphenyl]pyrazole-4-carbonyl]-5-(2,2-difluoroethoxy)-1H-indol-6-yl]piperidin-1-yl]ethanone]: the IC50 came out at 1.6 nM on human Yes1 enzyme, 16 nM on human Src enzyme and 9.2 nM at human Lck enzyme.

As for `COc1cc2cc(C(=O)c3cnn(-c4cnc(Oc5c(F)cccc5F)cc4C)c3N)[nH]c2cc1NS(=O)(=O)CCCF` [Example 4-19-001, N-(2-(5-amino-1-(6-(2,6-difluorophenoxy)-4-methylpyridin-3-yl)-1H-pyrazole-4-carbonyl)-5-methoxy-1H-indol-6-yl)-3-fluoropropane-1-sulfonamide], the results for the IC50 at human Yes1 enzyme, on human Src enzyme and on human Lck enzyme were 0.83 nM, 28 nM and 3.9 nM, respectively.

Take `Cc1cc(Oc2ccccc2F)ccc1-n1ncc(C(=O)c2cc3cc(F)c(NS(N)(=O)=O)cc3[nH]2)c1N` [Example 4-20-001, 2-[5-amino-1-[4-(2-fluorophenoxy)-2-methylphenyl]pyrazole-4-carbonyl]-5-fluoro-6-(sulfamoylamino)-1H-indole]: the IC50 on human Yes1 enzyme was 0.64 nM; on human Src enzyme, 31 nM; on human Lck enzyme, 3.5 nM.

With `Cc1cc(Oc2cccc(F)c2F)ccc1-n1ncc(C(=O)c2cc3cc(F)c(NS(N)(=O)=O)cc3[nH]2)c1N` [Example 4-20-002, 2-[5-amino-1-[4-(2,3-difluorophenoxy)-2-methylphenyl]pyrazole-4-carbonyl]-5-fluoro-6-(sulfamoylamino)-1H-indole], the IC50 worked out at 1 nM on human Yes1 enzyme, 50 nM at human Src enzyme and 8.3 nM at human Lck enzyme.

`Cc1cc(-n2ncc(C(=O)c3cc4cc(F)c(NS(N)(=O)=O)cc4[nH]3)c2N)ccc1Oc1ccccc1F` [Example 4-20-003, 2-[5-amino-1-[4-(2-fluorophenoxy)-3-methylphenyl]pyrazole-4-carbonyl]-5-fluoro-6-(sulfamoylamino)-1H-indole]: the IC50 stood at 1.4 nM at human Yes1 enzyme, 15 nM on human Src enzyme and 2.1 nM at human Lck enzyme.

Consider `Cc1cc(Oc2c(F)cccc2F)ncc1-n1ncc(C(=O)c2cc3cc(OCC(F)F)c(N4CCCC4=O)cc3[nH]2)c1N` [Example 4-21-001, 1-{2-{5-amino-1-[6-(2,6-difluorophenoxy)-4-methylpyridin-3-yl]pyrazole-4-carbonyl}-5-(2,2-difluoroethoxy)-1H-indol-6-yl}pyrrolidin-2-one], for which the values for the IC50 on human Yes1 enzyme, on human Src enzyme and on human Lck enzyme were 3.7 nM, 13 nM and 6.2 nM, respectively.

Consider `Cc1cc(Oc2ccccc2F)ccc1-n1ncc(C(=O)c2cc3cc(OCC(F)F)c(N4CCCC4=O)cc3[nH]2)c1N` [Example 4-21-002, 1-[2-[5-amino-1-[4-(2-fluorophenoxy)-2-methylphenyl]pyrazole-4-carbonyl]-5-(2,2-difluoroethoxy)-1H-indol-6-yl]pyrrolidin-2-one], for which the IC50 came to 0.89 nM at human Yes1 enzyme, 5.4 nM at human Src enzyme and 2.8 nM at human Lck enzyme.

Consider `Cc1cc(Oc2ccccc2F)ccc1-n1ncc(C(=O)c2cc3cc(OCC(F)F)c(N4CCOC4=O)cc3[nH]2)c1N` [Example 4-21-003, 3-[2-[5-amino-1-[4-(2-fluorophenoxy)-2-methylphenyl]pyrazole-4-carbonyl]-5-(2,2-difluoroethoxy)-1H-indol-6-yl]-1,3-oxazolidin-2-one], for which the figures for the IC50 on human Yes1 enzyme, at human Src enzyme and on human Lck enzyme were 0.53 nM, 2.4 nM and 1.5 nM, respectively.

For the compound `Cc1cc(Oc2ccccc2F)cc(F)c1-n1ncc(C(=O)c2cc3cc(OCC(F)F)c(N4CCCC4=O)cc3[nH]2)c1N` [Example 4-21-004, 1-[2-[5-amino-1-[2-fluoro-4-(2-fluorophenoxy)-6-methylphenyl]pyrazole-4-carbonyl]-5-(2,2-difluoroethoxy)-1H-indol-6-yl]pyrrolidin-2-one], the IC50 was found to be 1 nM at human Yes1 enzyme, 9.2 nM at human Src enzyme and 3 nM at human Lck enzyme.

Take `Cc1cc(Oc2c(F)cccc2F)ncc1-n1ncc(C(=O)c2cc3cc(OCC(F)F)c(N4CCOC4=O)cc3[nH]2)c1N` [Example 4-21-005, 3-[2-[5-amino-1-[6-(2,6-difluorophenoxy)-4-methylpyridin-3-yl]pyrazole-4-carbonyl]-5-(2,2-difluoroethoxy)-1H-indol-6-yl]-1,3-oxazolidin-2-one]: the results for the IC50 on human Yes1 enzyme, on human Src enzyme and on human Lck enzyme were 1.2 nM, 11 nM and 4.3 nM, respectively.

As for `Cc1cc(Oc2ccccc2F)ccc1-n1ncc(C(=O)c2cc3cc(OC(F)F)c(N4CCCC4=O)cc3[nH]2)c1N` [Example 4-21-006, 1-[2-[5-amino-1-[4-(2-fluorophenoxy)-2-methylphenyl]pyrazole-4-carbonyl]-5-(difluoromethoxy)-1H-indol-6-yl]pyrrolidin-2-one], the IC50 on human Yes1 enzyme stood at 1.6 nM; at human Src enzyme, 17 nM; at human Lck enzyme, 5.5 nM.
